{
  "source": "patent US9061023B2",
  "about": "“Management and treatment of benign prostatic hyperplasia” (CSIR, priority 2007, dated 2015)",
  "key": {"[1]": {"test_system": "steroid 5α-reductase enzyme", "settings": "reported in literature (ref 18); cited from earlier work"}, "[2]": {"experiment": "DPPH antioxidant screen (radical scavenging capacity)", "experimental": "The antioxidant assay was based on the DPPH assay. DPPH is a radical and when a compound with radical scavenging properties reacts with DPPH, the purple colour disappears and a yellow colour is observed. The decolourisation of a purple colour to a yellow colour is measured by a chromameter. The intensity of the yellow colour gives an indication of antioxidant activity. […] The antioxidant activity was expressed as percentage radical scavenging capacity (RSC). […] This evaluation was carried out at the CSIR, Biosciences, Bioprospecting Platform. The 1,1-diphenyl-2-picrylhydrazyl (DPPH) assay was used to investigate the scavenging properties of extracts and pure compounds. […] This is quantified by the decrease of absorbance at wavelength 515 nm in the spectrophotometer. DPPH(purple)+([…](yellow)+(A·)n^26 Since this was a colorimetric test, the appearance of the yellow colour was measured using a chromameter. The final appearance of a more intense yellow colour was used as a good indication of a radical scavenging ability of the extract or compound and this is directly proportional to its antioxidant activity. The antioxidant activity was directly related to the total amount of phenolics and flavonoids present in that particular extract. This method was sensitive enough to indicate and monitor the presence of phenolic-type compounds. […] Spots with good radical scavenging properties turned yellow and the intensity was measured by a chromameter^5. […] The activity of the compound or extract was measured against the reference compound, epigallocatechin gallate."}, "[3]": {"target": "steroid 5α-reductase enzyme (Rattus norvegicus (Rat), UniProt P24008)", "sequence (P24008 whole entry)": "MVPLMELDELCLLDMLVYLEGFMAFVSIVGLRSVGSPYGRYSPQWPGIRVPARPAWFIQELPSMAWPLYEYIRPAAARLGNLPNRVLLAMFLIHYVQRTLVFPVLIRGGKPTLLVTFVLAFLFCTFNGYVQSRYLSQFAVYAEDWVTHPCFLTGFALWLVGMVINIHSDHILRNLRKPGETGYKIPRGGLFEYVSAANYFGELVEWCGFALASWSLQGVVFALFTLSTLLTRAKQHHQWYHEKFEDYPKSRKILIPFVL", "experiment": "In vitro steroid 5α-reductase assay (testosterone EIA)", "assay_type": "biochemical, Wistar rats", "settings": "for IC50: reference compound data", "experimental": "In vitro biological assays of the extracts, compounds and mixtures of compounds were undertaken to determine their inhibition of the enzyme 5α-reductase. The efficacy of each isolated compound as well as the crude spray-dried extract was expressed as percentage inhibitory activity and these compounds were tested at different concentrations.\nThe inhibitory effect of the crude extract, the isolated compounds and a mixture of the compounds on the steroid 5α-reductase was investigated and the results are given in Table 2.\nThis work was performed at the MDS Pharma Services, Pharmacology Laboratories, Taiwan. The assay was an in vitro evaluation of the ability of an extract or a pure compound to inhibit the steroid 5α-reductase enzyme from metabolizing testosterone into dihydrotestosterone. This is an enzyme-immunoassay (EIA) for quantitative determination of testosterone in human serum or plasma. The significance of this type of inhibition is that it can lead to eradication of benign prostatic hyperplasia (BPH). Two distinct isozymes are found in mice, rats, monkeys and humans: type 1 and II. Each of these isozymes is differentially expressed in tissues and developmental stages. In human, type 1 steroid 5α-reductase is predominant in the sebaceous glands of most regions of skin, including scalp and liver and is responsible for approximately one third of circulating DHT. Inhibitors of steroid 5α-reductase may be of benefit in the treatment of androgenetic alopecia. This is a specific binding assay whereby the biochemical assay results were expressed as percentage inhibition. Finasteride was used as a reference compound in all experiments.\nThe method employed was adapted from the scientific literature to maximize reliability and reproducibility^25. The steroid 5α-reductase enzyme was isolated from the liver of Wistar rats. The test compound was incubated with 20 μg/mL of steroid 5α-reductase preparation which contains 1 μM testosterone and 50 μM NADPH in DTT buffer, pH 6.5 for 30 minutes at 37° C. The reaction was stopped by addition of 1N HCl and neutralized by 1N NaOH and testosterone was quantified using a testosterone EIA Kit. Compounds were screened at 10 μM."}, "5α-reductase": {"test_system": "5α-reductase", "settings": "men with smaller prostates, background; cited from earlier work"}},
  "data": [
    {"smiles": "O=C(O)c1cc(O)c(O)c(O)c1", "note": "[Compound (1), 3,4,5-Trihydroxybenzoic acid]", "values": [
      {"measurement": "effect against the steroid 5α-reductase enzyme in words", "setting": "[1]", "value": "ineffective"}
    ]},
    {"smiles": "COC(=O)c1cc(O)c(O)c(O)c1", "note": "[Compound (2), 3,4,5-Trihydroxybenzoic acid methyl ester]", "values": [
      {"measurement": "effect against the steroid 5α-reductase enzyme in words", "setting": "[1]", "value": "ineffective"}
    ]},
    {"smiles": "O=C(O[C@@H]1Cc2c(O)cc(O)cc2O[C@@H]1c1cc(O)c(O)c(O)c1)c1cc(O)c(O)c(O)c1", "note": "[Epigallocatechin gallate, reference compound]", "values": [
      {"measurement": "% RSC", "setting": "[2]; 0.01 ppm", "value": 8, "unit": "%"},
      {"measurement": "% RSC", "setting": "[2]; 0.1 ppm", "value": 8, "unit": "%"},
      {"measurement": "% RSC", "setting": "[2]; 1 ppm", "value": 61, "unit": "%"},
      {"measurement": "% RSC", "setting": "[2]; 10 ppm", "value": 95, "unit": "%"},
      {"measurement": "% RSC", "setting": "[2]; 100 ppm", "value": 95, "unit": "%"}
    ]},
    {"smiles": "O=c1c(O)c(-c2ccc(O)c(OC3OC(CO)C(O)C(O)C3O)c2)oc2cc(O)cc(O)c12", "note": "(centres unmarked) [Compound (3), 3,5,7-Trihydroxy-2-[4-hydroxy-3-(3,4,5-trihydroxy-6-hydroxymethyltetrahydropyran-2-yloxy)-phenyl]-chromen-4-one]", "values": [
      {"measurement": "inhibition at 1 µM", "setting": "[3]; test concentration 1 μM", "value": -9, "unit": "%"},
      {"measurement": "% RSC", "setting": "[2]; 6.25 ppm", "value": 41, "unit": "%"},
      {"measurement": "% RSC", "setting": "[2]; 12.5 ppm", "value": 77, "unit": "%"},
      {"measurement": "% RSC", "setting": "[2]; 25 ppm", "value": 95, "unit": "%"},
      {"measurement": "% RSC", "setting": "[2]; 50 ppm", "value": 95, "unit": "%"},
      {"measurement": "% RSC", "setting": "[2]; 100 ppm", "value": 95, "unit": "%"}
    ]},
    {"smiles": "O=C1c2c(O)cc(O)cc2O[C@H](c2ccc(O)c(O[C@@H]3O[C@H](CO)[C@@H](O)[C@H](O)[C@H]3O)c2)[C@H]1O", "note": "[Compound (5), (2R,3R)-,2-[3-(β-D-glucopyranosyloxy)-4-hydroxy-phenyl]-2,3-dihydro-3,5,7-trihydroxy-,4H-1-benzo-pyran-4-one]", "values": [
      {"measurement": "% inhibition", "setting": "[3]; test concentration 1 μM", "value": 3, "unit": "%"},
      {"measurement": "% RSC", "setting": "[2]; 6.25 ppm", "value": 10, "unit": "%"},
      {"measurement": "% RSC", "setting": "[2]; 12.5 ppm", "value": 8, "unit": "%"},
      {"measurement": "% RSC", "setting": "[2]; 25 ppm", "value": 10, "unit": "%"},
      {"measurement": "% RSC", "setting": "[2]; 50 ppm", "value": 13, "unit": "%"},
      {"measurement": "% RSC", "setting": "[2]; 100 ppm", "value": 21, "unit": "%"}
    ]},
    {"smiles": "CC(C)(C)NC(=O)[C@H]1CC[C@H]2[C@@H]3CC[C@H]4NC(=O)C=C[C@]4(C)[C@H]3CC[C@]12C", "note": "[Finasteride]", "values": [
      {"measurement": "IC50", "setting": "[3]", "value": 0.025, "unit": "µM"},
      {"measurement": "inhibition at 0.025 µM", "setting": "[3]; test concentration 0.025 μM", "value": 50, "unit": "%"},
      {"measurement": "reduction in erection rate", "setting": "5α-reductase", "value": "up to 8%"},
      {"measurement": "reduction in semen volume", "setting": "5α-reductase", "value": 4, "unit": "%"},
      {"measurement": "reduction in sex drive", "setting": "5α-reductase", "value": 6, "unit": "%"}
    ]},
    {"smiles": "O=C(OC1Cc2c(O)cc(O)cc2OC1c1cc(O)cc(O)c1)c1cc(O)c(O)c(O)c1", "note": "(centres unmarked) [Compound (4), 3,4,5-Trihydroxybenzoic acid 2-(3,5-dihydroxy-phenyl)-5,7-dihydroxy-chroman-3-yl ester]", "values": [
      {"measurement": "inhibition at 1 µM", "setting": "[3]; test concentration 1 μM", "value": -2, "unit": "%"}
    ]},
    {"smiles": "CCCCC/C=C\\C/C=C\\C/C=C\\CCCCC(=O)O", "note": "[γ-Linolenic acid, reference compound]", "values": [
      {"measurement": "IC50", "setting": "[3]", "value": 14, "unit": "µM"}
    ]}
  ]
}
